Data published in patent US20160017273A1, “SPERM SELECTION UNIT STRUCTURE, SPERM SCREENING DEVICE PROVIDED WITH SPERM SELECTION UNIT STRUCTURE, AND METHOD OF PREPARING SEMEN FOR FERTILIZATION” (NATIONAL INSTITUTE OF ADVANCED INDUSTRIAL SCIENCE AND …, priority 2013, published 2016).

Test system: sperm of thawed frozen semen
Test: ratio between X sperm and Y sperm (real time PCR) in semen recovered by the sperm screening device after the sperm preservation step with a phenoxazine compound
Assay type: cell-based, Holstein cattle
Conditions: 25 μM brilliant cresyl blue + 5 mM glucose-6-phosphate, no electron accepting substance added, 5% CO2
Experimental: Frozen semen of WHO OCEANIC JOVIAN ET (Holstein cattle) was thawed in accordance with the predetermined steps, 200 μl of thawed semen was sampled and was put into a tube having a capacity of 1.5 ml. Then, semen was subjected to the centrifugal separation (7 minutes, 2000 rpm), and a half of supernatant of the semen after being subjected to the centrifugal separation was thrown away and approximately 1004 of semen was left in the tube.
An approximately 100 μL of buffer solution (obtained by adding 6 mg/mL BSA+10 μg/mL of gentamycin+5 mM EGTA to the commercially available “SP-TALP” solution) is added into the tube, the buffer solution is stirred lightly and, thereafter, the buffer solution was incubated for 50 minutes at 37° with 5% CO2.
Next, the tube was subjected to the centrifugal separation again (7 minutes, 2000 rpm), and a supernatant of the solution was thrown away, and an approximately 100 μL of buffer solution (obtained by adding 6 mg/mL BSA+10 […] to the commercially available “SP-TALP” solution; not containing EGTA) was added into the tube and, thereafter, the solution was stirred lightly.
The tube was subjected to the centrifugal separation again (7 minutes, 2000 rpm), and 100 μL of a supernatant of the solution was thrown away, and an approximately 100 μL of buffer solution (obtained by adding 6 mg/mL BSA+10 μg/mL gentamycin +25 μM brilliant cresyl blue +5 mM glucose-6-phosphate to the commercially available “SP-TALP” solution) was added into the tube and, thereafter, the solution was incubated at 37° C. with 5% CO2 (sperm preservation step). […]
Thereafter, sperm having high motility were recovered by using the sperm screening device according to this embodiment. Then, with respect to the acquired semen for artificial insemination, a ratio between X sperm and Y sperm was investigated using a real time PCR method.

[1] = incubation 30 minutes at 37° C.
[2] = incubation 50 minutes at 37° C.

brilliant cresyl blue
ratio of X sperm [1]: 39%
ratio of Y sperm [1]: 61%
ratio of X sperm [2]: 35%
ratio of Y sperm [2]: 65%
